Test results from paper PMC8147656 (Journal of Personalized Medicine, 2021).
Read-outs that look alike come from different tables or passages of the source.

How the values were obtained:
[1] = parameters: method as in PMID 11117653; details: healthy volunteers; cited from earlier work
CYP2C19 [2] = tested on: CYP2C19; parameters: method as in Ogilvie et al., 2011 [27]; details: omeprazole; ref Ogilvie et al., 2011 [27]; cited from earlier work
CYP2C19 [3] = details: previous study based on omeprazole enantiomers; cited from earlier work
CYP2C19 [4] = details: cited from earlier work
CYP2C19 [5] = test: CYP2C19-mediated metabolism (fm, intrinsic clearance); type: in vitro ADME, human
Experimental: (§1) Absorption was described by a first-order absorption model in line with previous studies. The steady-state volume of distribution (Vss) value was based on previous models.
(§2) The full PBPK model was developed for gliclazide using a middle-out approach. The Vss was predicted by Simcyp Rodgers et al. + ion membrane permeability model. […] The intrinsic clearances per pmol of CYP enzymes were calculated using total intrinsic clearance measured in vitro in human liver microsomes, and fm values obtained from in vivo data. […] Considering the difference in abundance and activity of the transporter between liver and the transfected cell line, a relative activity factor (RAF) was optimized to fit the observed clinical data. Liver passive diffusion clearance (ClPD) of gliclazide was estimated based on experimental logD7.4 value.

[6] = omeprazole, cited from earlier work
[7] = parameters: method as in Hassan-Alin et al., 2005 [30]; details: geometric mean (95% CI), ref Hassan-Alin et al., 2005 [30], cited from earlier work; for Cmax: read-out: Cmax, observed
CYP3A4 [8] = tested on: CYP3A4; parameters: method as in PMID 24739523; details: omeprazole; average value for CYP2C19 EM/RM/UM phenotypes; cited from earlier work
CYP3A4 [9] = test: CYP3A4-mediated metabolism (fm, intrinsic clearance); type: in vitro ADME, human; details: omeprazole; retrograde calculated from observed Clpo after 20 mg single dose, fa*fg = 1
Excerpt: as §1

[10] = cited from earlier work
[11] = gliclazide; ref Proks et al., 2018 [46]; cited from earlier work
CYP2C9 [12] = details: human liver microsomes, CYP selective inhibitors; cited from earlier work
[13] = Clinical trial on omeprazole-gliclazide interaction in healthy volunteers, CYP2C19 NM/RM/UM; type: in vivo, human; details: for AUC(0-t): male, human, serum, oral, 40 mg, gliclazide 40 mg tablet, current trial, geometric mean (95% CI), read-out: AUC0–24, observed
Excerpt: Fifteen healthy volunteers (men, age 18–30 years, non-smokers) with CYP2C19 NM/RM/UM status were recruited. The exclusion criteria included: a medical history of hepatic, renal, gastrointestinal or hematologic disease or any acute or chronic disease; drug allergy to sulfonylureas or PPIs; history of drug abuse; abnormalities in physical examination, ECG or routine clinical laboratory tests (including fasting blood glucose concentration); medication use during the 14 days prior to and during the study period; grapefruit, grapefruit juice, alcohol, beverages or food containing methylxanthines use during the 72 h prior to and during the study period.
On day 5 of each admission period, after an overnight fast, the volunteers were admitted to the hospital. […] Drugs were given in a sitting position, at 8 AM. Volunteers were not permitted to lie down or sleep for the next 4 h after taking drugs, as well as to perform any strenuous activities for the next 24 h. In order to counteract the blood glucose-lowering action of gliclazide, volunteers received standardized meals: breakfast at 30 min after gliclazide intake, snacks after 2 and 3 h, a lunch (warm meal) after 4 h, a snack after 6 h, dinner after 8 h, and additional snacks at 10 h and 12 h after drugs administration. No other food and drink (with the exception of water) were allowed. For safety reasons, the volunteers were under direct medical supervision throughout the 24 h following drugs administration. Fast-acting carbohydrates, glucose solution for i.v. use and glucagon for intramuscular use were available in case of hypoglycemia.
Venous blood samples were collected on day 5 of each admission period before dosing (0 h) and 0.5, 1, 1.5, 2, 2.5, 3, 3.5, 4, 4.5, 5, 6, 8, 10, 12, 15 and 24 h after gliclazide administration. Serum samples for gliclazide quantification were separated within 30 min following each blood sample collection and stored at −80 °C until the analysis.
Serum gliclazide concentrations were quantified using a validated stable isotope dilution liquid chromatography-tandem mass spectrometry (LC-MS/MS) method. In brief, a total of 10 µL serum was added to 90 µL acetonitrile containing 100 ng/mL of d4-gliclazide and 0.1% formic acid. […] Gliclazide was quantitated by the triple quadrupole mass spectrometer in ESI positive ion mode. […] The limit of quantification was 3.1 ng/mL.
PK parameters were calculated in a noncompartmental analysis using PKSolver, a program for PK data analysis in Microsoft Excel. The area under the plasma gliclazide concentration-time curve (AUC) up to the last concentration measured (AUC0–t) was determined using the linear trapezoidal rule.
The main evaluated outcome was systemic exposure to gliclazide, expressed as AUC0–t. The geometric mean was calculated for AUC0–24. […]

CYP2C9 [14] = test: CYP2C9-mediated metabolism (fm, intrinsic clearance); type: in vitro ADME, human; details: gliclazide; calculated from microsomal total intrinsic clearance [10], CYP abundances and fm [36]
Experimental: as §2

Mrp2 = tested on: Mrp2; parameters: method as in PMID 18799822; details: cited from earlier work
[15] = cited from earlier work; remark: listed apart in the source
[16] = In vitro dissolution testing under biorelevant media-change conditions; type: physicochemical; details: conditions without vs with omeprazole (gastric pH)
Experimental: In order to estimate the drug release rate in vivo and concomitant absorption profile, dissolution tests were performed under biorelevant media-change conditions (Table 3), using USP apparatus 2 (Erweka DT 800, Heusenstamm, Germany) at 37 ± 0.5 °C and rotational speed of 100 rpm. Withdrawn aliquots were filtered, diluted and analysed for gliclazide by UV spectrophotometry (UV-1700 spectrophotometer, Shimadzu, Japan). The absorbance obtained at 226 nm was corrected by subtracting the absorbance obtained at 290 nm, according to British Pharmacopeia. All measurements were performed in triplicate. The pH values and tablet residence time in each medium were selected based on the proposed biorelevant dissolution test conditions. […] Medium pH 6.0 was used to simulate the fed state luminal conditions in the ascending colon.

[17] = Population observational study of patients with T2D (GoDARTS): severe gliclazide-induced hypoglycemia; type: in vivo, human; details: gliclazide-treated cohort with genetic data (48 cases and 288 controls); OR (95% CI), p = 0.187
Excerpt: We used the Scottish Ambulance Service data and the Accident and Emergency diagnosis records to identify severe cases of hypoglycemia in Tayside and Fife, Scotland. […] Logistic regression was used to analyze the effect of the CYP2C19 variants and co-treatment with PPIs on gliclazide-induced hypoglycemia. All analyses were adjusted for known clinical predictors of hypoglycemia, including age, sex, age of T2D diagnosis, body mass index, creatinine and HbA1c [53], as well as the overall number of medications used as a proxy for comorbidities [54]. The CYP2C19 phenotypes were assigned based on diplotypes in the same manner as in healthy volunteers. The analyses were performed using SAS 9.3 (SAS Institute Inc., Cary, NC, USA). Statistical significance was set at p < 0.05.

[18] = single oral gliclazide, healthy Chinese volunteers, cited from earlier work
OATP1B1 = details: cited from earlier work
[19] = first-order absorption model, ref Ogilvie et al., 2011 [27]
[20] = omeprazole model input, ref Ogilvie et al., 2011 [27]
[21] = gliclazide 30 mg MR tablet, single oral, geometric mean (95% CI)
[22] = gliclazide 80 mg IR tablet, single oral, geometric mean (95% CI)
[23] = gliclazide i.v. infusion 30 mg, geometric mean (95% CI)
[24] = gliclazide model input, ref Grbic et al., 2011 [40]
[25] = gliclazide, ref Chen et al., 2018 [37]

COc1ccnc(C[S+]([O-])c2nc3ccc(OC(F)F)cc3[nH]2)c1OC (stereo not drawn) [pantoprazole]
Effect of pantoprazole on glibenclamide PK [1]: no effect

COc1ccc2[nH]c([S+]([O-])Cc3ncc(C)c(OC)c3C)nc2c1 (stereo not drawn) [omeprazole]
Ki (CYP2C19 [2]): 5 µM
Predicted lowest level of active CYP2C19, previous study (CYP2C19 [3]): 14%
fm CYP2C19 (CYP2C19 [4]; omeprazole, average value for CYP2C19 EM/RM/UM phenotypes): 86%
Clint CYP2C19 (CYP2C19 [5]; omeprazole, retrograde calculated from observed Clpo after 20 mg single dose, fa*fg = 1): 75.1 µL/min/pmol
fa (fraction absorbed) [6, 19]: 1
ka (absorption rate constant) [6, 19]: 6 h⁻¹
Vss ([6]; minimal PBPK model, ref Deng 2016 [29], Wu et al., 2014 [28]): 0.15 L/kg
ClR (renal clearance) ([6]; ref Wu et al., 2014 [28], Feng et al., 2015 [42]): 0.037 L/h
AUC0–∞, observed ([7]; omeprazole 20 mg day 1): 1.04 (0.64–1.72) µM × h
Cmax ([7]; omeprazole 20 mg day 1): 1.04 µM
AUC0–∞, observed ([7]; omeprazole 20 mg day 5): 1.63 (0.96–2.78) µM × h
Cmax ([7]; omeprazole 20 mg day 5): 1.43 µM
AUC0–∞, observed ([7]; omeprazole 40 mg day 1): 2.44 (1.53–3.91) µM × h
Cmax ([7]; omeprazole 40 mg day 1): 2.32 µM
AUC0–∞, observed ([7]; omeprazole 40 mg day 5): 5.79 (3.60–9.33) µM × h
Cmax ([7]; omeprazole 40 mg day 5): 3.87 µM
fm CYP3A4 (CYP3A4 [8]): 14%
Clint CYP3A4 (CYP3A4 [9]): 0.39 µL/min/pmol
Compound type [10, 20]: Ampholyte
pKa (first value) [10, 20]: 4.4

Cc1ccc(S(=O)(=O)NC(=O)NN2CC3CCCC3C2)cc1 (stereo not drawn) [gliclazide]
fu (fraction unbound) [11]: 0.15
Contribution of CYP2C9 to gliclazide metabolism (CYP2C9 [12]): at least 65%
Contribution of CYP2C19 to gliclazide metabolism (CYP2C19 [4]; human liver microsomes, CYP selective inhibitors): ≤ 35%
Hypoglycemia or other adverse effects in the trial ([13]; 40 mg gliclazide with placebo or 20 mg omeprazole, healthy volunteers): no cases of hypoglycemia or any other adverse effect
Geometric mean ratio of gliclazide AUC0–24, omeprazole phase/placebo phase ([13]; 40 mg gliclazide, 20 mg omeprazole 5 days, 14 healthy volunteers NM/RM/UM, ratio (90% CI)): 1.13 (0.86–1.48)
AUC(0-t) ([13]; omeprazole phase): 3.73 µg·h/mL
AUC(0-t) ([13]; placebo phase): 3.29 µg·h/mL
Clint CYP2C19 (CYP2C19 [5]; gliclazide, calculated from microsomal total intrinsic clearance [10], CYP abundances and fm [36]): 0.273 µL/min/pmol
Clint CYP2C9 (CYP2C9 [14]): 0.004 µL/min/pmol
Substrate for the efflux Mrp2 transporter in rats (Mrp2): substrate
AUC0–72, observed [15, 21]: 14.4 (12.4–16.8) µgh/mL
AUC0–∞, observed [15, 21]: 15.6 (13.5–18.1) µgh/mL
Cmax, observed [15, 21]: 0.71 (0.62–0.82) µg/mL
tmax, observed ([15]; gliclazide 30 mg MR tablet, single oral, median (minimum–maximum)): 7 (4–10) h
AUC0–48, observed [15, 22]: 45.5 (38.9–53.3) µgh/mL
AUC0–∞, observed [15, 22]: 50.9 (42.8–60.5) µgh/mL
Cmax, observed [15, 22]: 3.51 (3.24–3.80) µg/mL
tmax, observed [15, 22]: 3.66 (3.10–4.33) h
AUC0–72, observed [15, 23]: 15.5 (13.0–18.5) µgh/mL
AUC0–∞, observed [15, 23]: 17.2 (14.5–20.3) µgh/mL
Cmax, observed [15, 23]: 1.39 (1.16–1.67) µg/mL
Vss observed in humans in vivo ([15]; gliclazide): 0.19 to 0.46 L/kg
Initial gliclazide release rate between media pH 1.6 and pH 3.0 [16]: no difference
Odds ratio of hypoglycemia for the loss-of-function CYP2C19*2 allele [17]: 0.50 (0.18–1.40)
Log P ([10]; gliclazide model input, ref El-Sabawi, et al., 2014 [45]): 2.04
Compound type [10, 24]: Ampholyte
pKa (first value) [10, 24]: 2.9
pKa (second value) [10, 24]: 5.8
Observed gliclazide AUC, fold higher in CYP2C19 PM compared to NM ([18]; ref 11): 3.4 fold
Observed gliclazide AUC, fold higher in CYP2C19 PM compared to NM ([18]; ref 12): 5.1 fold
Substrate of hepatic OATP1B1 transporter (OATP1B1): substrate
Km (OATP1B1; [25]): 30.2 µM
OATP1B1 Jmax (OATP1B1; [25]): 12.9 pmol/min/10^6 cells
